Measured values reported in US20250101025A1, “NOVEL PLK1 DEGRADATION INDUCING COMPOUND” (UPPTHERA, INC., priority 2021, published 2025).
Like-named read-outs stand apart in the source and are kept apart here.

What was measured:
Type in all cases: cell-based
PLK1 = biological target: T1, PLK1 (Homo sapiens, UniProt P53350); experiment: Luciferase assay for PLK1 in HeLa LgBit (Plk1-HiBit KI) cell line; details: compound 300 nM, luminescence after 9 hours
T1 construct: endogenous in cells; host or cells: HeLa LgBit (Plk1-HiBit KI): HeLa stably expressing LgBit, with HiBit knocked in at the endogenous Plk1 locus by CRISPR/Cas9
T1 sequence (P53350 whole entry): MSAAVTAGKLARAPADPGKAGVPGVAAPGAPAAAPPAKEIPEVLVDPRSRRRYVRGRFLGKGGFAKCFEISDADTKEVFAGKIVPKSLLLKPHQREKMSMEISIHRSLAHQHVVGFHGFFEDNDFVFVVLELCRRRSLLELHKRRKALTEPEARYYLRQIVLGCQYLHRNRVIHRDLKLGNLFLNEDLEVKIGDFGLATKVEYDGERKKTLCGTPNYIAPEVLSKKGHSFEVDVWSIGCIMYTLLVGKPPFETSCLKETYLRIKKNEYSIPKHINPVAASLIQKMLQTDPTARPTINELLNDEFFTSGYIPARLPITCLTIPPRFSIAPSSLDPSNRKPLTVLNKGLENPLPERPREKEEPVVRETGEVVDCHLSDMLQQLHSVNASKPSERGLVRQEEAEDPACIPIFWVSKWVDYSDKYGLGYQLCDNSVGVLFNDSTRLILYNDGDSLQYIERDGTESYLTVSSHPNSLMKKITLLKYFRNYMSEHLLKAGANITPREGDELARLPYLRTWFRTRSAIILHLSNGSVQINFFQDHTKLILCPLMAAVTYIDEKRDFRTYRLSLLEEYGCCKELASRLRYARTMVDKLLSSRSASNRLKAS
Experimental: 2. Luciferase Assay for PLK1
(1) Preparation and Culture of HeLa LgBit (Plk1-HiBit KI) Cell Line
A HeLa cell line in which the LgBit vector was transfected and expressed stably was prepared. Then, after constructing gRNA and donor to express the HiBit amino acid sequence behind the C-terminal of the Plk1 gene, which was inherent in the cell, it was inserted into the cell together with a vector capable of expressing CRISPR/Cas9. Only the cells in which the insertion was completed and knock-in had progressed were selected, sub-cultured and used.
(2) Treatment of Compounds of the Present Invention and Method of Luciferase Assay
In the case of HeLa LgBit (Plk1-HiBit KI), the compounds were treated after being released after thymidine block, and the process was as follows. Thymidine (Sigma-Aldrich Cat. No. T9250-5G) was completely dissolved in DW and used in the experiment. For thymidine block, the products were treated with 2 mM of thymidine and then incubated for 24 hours. For release and chemical treatment, the medium was suctioned and washed with 1×PBS. TrypLE™ was added and incubated in 37° C. CO2 incubator for 5 min. Cells neutralized by adding complete media were counted through a counter. For each well of a 96-well culture plate (SPL), 3.3×10^4 cells and a total medium volume of 150 μL were seeded and incubated in a CO2 incubator.
Each cell line was incubated in a CO2 incubator for 18 hours, and Endurazine was added to each well to make up 4% of the total volume. After adding the compound of the present invention in a 96-well white plate (SPL) to a concentration of 300 nM, the wavelength of the plate reader (BMG Labtech, CLARIOstar Plus) was set to […], and then the luminescence was tracked in real time.
In Table 2, Activity represents the ratio of the luminescence value of each Exemplary Compound treatment group to DMSO treatment group (+++: <0.3, ++<0.6, +<0.7).

H526 cell line = experiment: Cell viability assay for NCI-H526 cell line (EZ-Cytox); details: Homo sapiens, NCI-H526, 120 h; H526 cells, 3-fold dilutions 3000 nM to 0.46 nM, 5 days
Experimental: (1) Culture of NCI-H526 Cell Line
(2) Treatment of Compounds of the Present Invention and Method of Cell Viability Assay
After treating the compound to each well to make the total volume of 200 μL, it was cultured in a CO2 incubator (Thermo Fisher Science, Cat. No. 4111) for 5 days.
The absorbance of the completely cultured sample was measured by setting the wavelength of a plate reader (BMG Labtech, CLARIOstar Plus) to […], and was measured after shaking for 3 minutes in a plate reader before measurement.
In Table 3, Activity represents IC50 value of each Exemplary Compound treatment group to H526 cell line (A: <30 nM, B: <50 nM, C: <100 nM, D: <200 nM, E: <400 nM).

MRC-5 cell line = experiment: Cell viability assay for MRC-5 cell line (EZ-Cytox cytotoxicity experiment); details: Homo sapiens, MRC5, 120 h, MRC-5 normal cell line, 5 days
Experimental: 4. Cell Viability Assay for MRC-5 Cell Line
(1) Culture of MRC-5 Cell Line
Passage of cultured cells was maintained within P15.
(2) Treatment of Compounds of the Present Invention
Then, it was cultured in 37° C.
(3) Cytotoxicity Experiment
CO2 incubator for 4 hours.

[1] = highest concentration 10000 nM, N.D. = no cytotoxicity until 10 μM, read-out: Activity: IC50 value to MRC-5 cell line, N.D. cells
[2] = 3-fold dilutions 10000 nM to 1.52 nM, Exemplary Compounds, numeric values, read-out: Activity: IC50 value (nM) to MRC-5 cell line

Row | Structure (SMILES) | Activity: ratio of the luminescence value of each Exemplary Compound treatment group to DMSO treatment group (PLK1) | IC50 (H526 cell line) | IC50 (MRC-5 cell line; [1]) | IC50 (MRC-5 cell line; [2])
1 | COc1cc(C(=O)NN2CCC(CN3CCN(c4ccc(NC5CCC(=O)NC5=O)cc4F)CC3)CC2)ccc1Nc1ncc2c(n1)N(C(C)C)CC(F)(F)C(=O)N2C (stereo not drawn) [Compound 17, 4-((7,7-difluoro-9-isopropyl-5-methyl-6-oxo-6,7,8,9-tetrahydro-5H-pyrimido[4,5-b][1,4]diazepin-2-yl)amino)-N-(4-((4-(4-((2,6-dioxopiperidin-3-yl)amino)-2-fluorophenyl)piperazin-1-yl)methyl)piperidin-1-yl)-3-methoxybenzamide] | ++ (++<0.6) | < 0.05 µM | > 10000 nM | 
2 | COc1cc(C(=O)NC2CCN(C(=O)CCN3CCN(c4ccc(NC5CCC(=O)NC5=O)cc4)CC3)CC2)ccc1Nc1ncc2c(n1)N(C1CCCC1)CC(F)(F)C(=O)N2C (stereo not drawn) [Compound 13, 4-((9-cyclopentyl-7,7-difluoro-5-methyl-6-oxo-6,7,8,9-tetrahydro-5H-pyrimido[4,5-b][1,4]diazepin-2-yl)amino)-N-(1-(3-(4-(4-((2,6-dioxopiperidin-3-yl)amino)phenyl)piperazin-1-yl)propanoyl)piperidin-4-yl)-3-methoxybenzamide] | +++ (+++: <0.3) | < 0.03 µM | > 10000 nM | 
3 | COc1cc(C(=O)NC2CC3(CCN(CC4CCN(c5ccc(NC6CCC(=O)NC6=O)cc5F)CC4)CC3)C2)ccc1Nc1ncc2c(n1)N(C(C)C)CC(F)(F)C(=O)N2C (stereo not drawn) [Compound 24, 4-((7,7-difluoro-9-isopropyl-5-methyl-6-oxo-6,7,8,9-tetrahydro-5H-pyrimido[4,5-b][1,4]diazepin-2-yl)amino)-N-(7-((1-(4-((2,6-dioxopiperidin-3-yl)amino)-2-fluorophenyl)piperidin-4-yl)methyl)-7-azaspiro[3.5]nonan-2-yl)-3-methoxybenzamide] | +++ (+++: <0.3) | < 0.03 µM |  | 23200 nM
4 | COc1cc(C(=O)NC2CCN(C(=O)CCN3CCN(c4ccc(N(C)C5CCC(=O)NC5=O)cc4F)CC3)CC2)ccc1Nc1ncc2c(n1)N(C1CCCC1)CC(F)(F)C(=O)N2C (stereo not drawn) [Compound 16, 4-((9-cyclopentyl-7,7-difluoro-5-methyl-6-oxo-6,7,8,9-tetrahydro-5H-pyrimido[4,5-b][1,4]diazepin-2-yl)amino)-N-(1-(3-(4-(4-((2,6-dioxopiperidin-3-yl)(methyl)amino)-2-fluorophenyl)piperazin-1-yl)propanoyl)piperidin-4-yl)-3-methoxybenzamide] | +++ (+++: <0.3) | < 0.03 µM | > 10000 nM | 
5 | COc1cc(C(=O)NN2CCC(N3CC4(CCN(c5ccc(N(C)C6CCC(=O)NC6=O)cc5F)CC4)C3)CC2)ccc1Nc1ncc2c(n1)N(C(C)C)CC(F)(F)C(=O)N2C (stereo not drawn) [Compound 33, 4-((7,7-difluoro-9-isopropyl-5-methyl-6-oxo-6,7,8,9-tetrahydro-5H-pyrimido[4,5-b][1,4]diazepin-2-yl)amino)-N-(4-(7-(4-((2,6-dioxopiperidin-3-yl)(methyl)amino)-2-fluorophenyl)-2,7-diazaspiro[3.5]nonan-2-yl)piperidin-1-yl)-3-methoxybenzamide] | ++ (++<0.6) | < 0.05 µM |  | 25000 nM
6 | COc1cc(C(=O)NC2CC3(CCN(CC4CCN(c5ccc(OC6CCC(=O)NC6=O)cc5F)CC4)CC3)C2)ccc1Nc1ncc2c(n1)N(C(C)C)CC(F)(F)C(=O)N2C (stereo not drawn) [Compound 35, 4-((7,7-difluoro-9-isopropyl-5-methyl-6-oxo-6,7,8,9-tetrahydro-5H-pyrimido[4,5-b][1,4]diazepin-2-yl)amino)-N-(7-((1-(4-((2,6-dioxopiperidin-3-yl)oxy)-2-fluorophenyl)piperidin-4-yl)methyl)-7-azaspiro[3.5]nonan-2-yl)-3-methoxybenzamide] | +++ (+++: <0.3) | < 0.05 µM |  | 16900 nM
7 | COc1cc(C(=O)NN2CCC(CN3CCN(c4ccc(NC5CCC(=O)NC5=O)cc4Cl)CC3)CC2)ccc1Nc1ncc2c(n1)N(C(C)C)CC(F)(F)C(=O)N2C (stereo not drawn) [Compound 19, N-(4-((4-(2-chloro-4-((2,6-dioxopiperidin-3-yl)amino)phenyl)piperazin-1-yl)methyl)piperidin-1-yl)-4-((7,7-difluoro-9-isopropyl-5-methyl-6-oxo-6,7,8,9-tetrahydro-5H-pyrimido[4,5-b][1,4]diazepin-2-yl)amino)-3-methoxybenzamide] | + (+<0.7) | < 0.05 µM | > 10000 nM | 
8 | COc1cc(C(=O)NC2CCN(C(=O)CCN3CCN(c4cccc(C(=O)NC5CCC(=O)NC5=O)c4F)CC3)CC2)ccc1Nc1ncc2c(n1)N(C1CCCC1)CC(F)(F)C(=O)N2C (stereo not drawn) [Compound 6, 3-(4-(3-(4-(4-((9-cyclopentyl-7,7-difluoro-5-methyl-6-oxo-6,7,8,9-tetrahydro-5H-pyrimido[4,5-b][1,4]diazepin-2-yl)amino)-3-methoxybenzamido)piperidin-1-yl)-3-oxopropyl)piperazin-1-yl)-N-(2,6-dioxopiperidin-3-yl)-2-fluorobenzamide] | ++ (++<0.6) | < 0.05 µM | > 10000 nM | 
9 | COc1cc(C(=O)NC2CCN(CC3CN(c4ccc(NC5CCC(=O)NC5=O)cc4F)C3)CC2)ccc1Nc1ncc2c(n1)N(C(C)C)CC(F)(F)C(=O)N2C (stereo not drawn) [Compound 20, 4-((7,7-difluoro-9-isopropyl-5-methyl-6-oxo-6,7,8,9-tetrahydro-5H-pyrimido[4,5-b][1,4]diazepin-2-yl)amino)-N-(1-((1-(4-((2,6-dioxopiperidin-3-yl)amino)-2-fluorophenyl)azetidin-3-yl)methyl)piperidin-4-yl)-3-methoxybenzamide] | ++ (++<0.6) | < 0.05 µM | > 10000 nM | 
10 | COc1cc(C(=O)NN2CCC(N3CC4(CCN(c5ccc(NC6CCC(=O)NC6=O)cc5F)CC4)C3)CC2)ccc1Nc1ncc2c(n1)N(C(C)C)CC(F)(F)C(=O)N2C (stereo not drawn) [Compound 32, 4-((7,7-difluoro-9-isopropyl-5-methyl-6-oxo-6,7,8,9-tetrahydro-5H-pyrimido[4,5-b][1,4]diazepin-2-yl)amino)-N-(4-(7-(4-((2,6-dioxopiperidin-3-yl)amino)-2-fluorophenyl)-2,7-diazaspiro[3.5]nonan-2-yl)piperidin-1-yl)-3-methoxybenzamide] | ++ (++<0.6) | < 0.05 µM | > 10000 nM | 
11 | COc1cc(C(=O)NC2CC3(CCN(CC4CCN(c5c(F)cc(NC6CCC(=O)NC6=O)cc5F)CC4)CC3)C2)ccc1Nc1ncc2c(n1)N(C(C)C)CC(F)(F)C(=O)N2C (stereo not drawn) [Compound 25, 4-((7,7-difluoro-9-isopropyl-5-methyl-6-oxo-6,7,8,9-tetrahydro-5H-pyrimido[4,5-b][1,4]diazepin-2-yl)amino)-N-(7-((1-(4-((2,6-dioxopiperidin-3-yl)amino)-2,6-difluorophenyl)piperidin-4-yl)methyl)-7-azaspiro[3.5]nonan-2-yl)-3-methoxybenz amide] | +++ (+++: <0.3) | < 0.03 µM |  | 9240 nM
